From ChEMBL document CHEMBL1130519, “BN 80245: An E-ring modified camptothecin with potent antiproliferative and topoisomerase I inhibitory activities” (Bioorg Med Chem Lett, 1997)

System: L1210
Test: Compound was evaluated for cytotoxic activity on L1210 murine leukemia cells
Assay type: functional, cell-based
Settings: Mus musculus

Compared with `CCC1(O)CC(=O)OCc2c1cc1n(c2=O)Cc2cc3ccccc3nc2-1` (stereo not drawn), `CC[C@@]1(O)C(=O)OCc2c1cc1n(c2=O)Cc2cc3ccccc3nc2-1` [CAMPTOTHECIN] is 7.8-fold higher in IC50: 0.0162 µM for the first, 0.126 µM for the second. The first is the more potent here.

In the case of `CC[C@@]1(O)C(=O)OCc2c1cc1n(c2=O)Cc2cc3c(CN(C)C)c(O)ccc3nc2-1` [TOPOTECAN], the IC50 is reported as 0.601 µM.
